Converted amounts (≈) assume the structure as drawn. Where two headings read alike, the source gives them in different places.
Assays:
[1] = system: clinical MDR Staphylococcus epidermidis isolates; assay: MIC, broth microdilution, 81 clinical MDR strains; format: cell-based
In short: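 MICs were determined by twofold broth microdilution in cation-adjusted Mueller-Hinton II broth per EUCAST, over 50–0.1 µg/mL, in duplicate. Compounds were tested as free bases dissolved in DMSO; MIC50 and MIC90 were derived across the 81 clinical MDR S. epidermidis strains.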

[2] = system: Staphylococcus aureus ATCC BAA-976; assay: MIC, broth microdilution, MDR/BPSA reference strain; format: cell-based; details: ATCCBAA976; Staphylococcus aureus ATCC BAA-976; read-out: MIC MDR/BPSA
In short: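 Compounds tested as free bases dissolved in DMSO (1 mg/mL stock); determinations done twice; linezolid as positive control.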

SMILES: O=C(Nc1cccc(Cl)c1)NC1CCN(CCC(Oc2ccc(C(F)(F)F)cc2)c2cccs2)CC1 (stereo not drawn) [Compound 25]
- MIC ([1]; Staphylococcus epidermidis, clinical strain 42 (Table S5), read-out: MIC): 0.8 µg/mL (≈ 1.49 µM)
- MIC ([1]; Staphylococcus epidermidis, clinical strain 43 (Table S2), read-out: MIC): 1.6 µg/mL (≈ 2.97 µM)
- MIC ([1]; Staphylococcus epidermidis, clinical strain 43 (Table S5), read-out: MIC): 1.6 µg/mL (≈ 2.97 µM)
- MIC ([1]; Staphylococcus epidermidis, clinical strain 44 (Table S2), read-out: MIC): 1.6 µg/mL (≈ 2.97 µM)
- MIC ([1]; Staphylococcus epidermidis, clinical strain 44 (Table S5), read-out: MIC): 1.6 µg/mL (≈ 2.97 µM)
- MIC ([1]; Staphylococcus epidermidis, clinical strain 45 (Table S2), read-out: MIC): 1.6 µg/mL (≈ 2.97 µM)
- MIC ([1]; Staphylococcus epidermidis, clinical strain 45 (Table S5), read-out: MIC): 1.6 µg/mL (≈ 2.97 µM)
- MIC ([1]; Staphylococcus epidermidis, clinical strain 46 (Table S2), read-out: MIC): 1.6 µg/mL (≈ 2.97 µM)
- MIC ([1]; Staphylococcus epidermidis, clinical strain 46 (Table S5), read-out: MIC): 0.8 µg/mL (≈ 1.49 µM)
- MIC ([1]; Staphylococcus epidermidis, clinical strain 47 (Table S2), read-out: MIC): 1.6 µg/mL (≈ 2.97 µM)
- MIC ([1]; Staphylococcus epidermidis, clinical strain 47 (Table S5), read-out: MIC): 1.6 µg/mL (≈ 2.97 µM)
- MIC ([1]; Staphylococcus epidermidis, clinical strain 48 (Table S2), read-out: MIC): 1.6 µg/mL (≈ 2.97 µM)
- MIC ([1]; Staphylococcus epidermidis, clinical strain 48 (Table S5), read-out: MIC): 1.6 µg/mL (≈ 2.97 µM)
- MIC ([1]; Staphylococcus epidermidis, clinical strain 49 (Table S2), read-out: MIC): 0.1 µg/mL (≈ 0.186 µM)
- MIC ([1]; Staphylococcus epidermidis, clinical strain 49 (Table S5), read-out: MIC): 0.1 µg/mL (≈ 0.186 µM)
- MIC ([1]; Staphylococcus epidermidis, clinical strain 50 (Table S2), read-out: MIC): 3.12 µg/mL (≈ 5.81 µM)
- MIC ([1]; Staphylococcus epidermidis, clinical strain 50 (Table S5), read-out: MIC): 3.12 µg/mL (≈ 5.81 µM)
- MIC ([1]; Staphylococcus epidermidis, clinical strain 51 (Table S2), read-out: MIC): 3.12 µg/mL (≈ 5.81 µM)
- MIC ([1]; Staphylococcus epidermidis, clinical strain 51 (Table S5), read-out: MIC): 3.12 µg/mL (≈ 5.81 µM)
- MIC ([1]; Staphylococcus epidermidis, clinical strain 52 (Table S2), read-out: MIC): 3.12 µg/mL (≈ 5.81 µM)
- MIC ([1]; Staphylococcus epidermidis, clinical strain 52 (Table S5), read-out: MIC): 3.12 µg/mL (≈ 5.81 µM)
- MIC ([1]; Staphylococcus epidermidis, clinical strain 53 (Table S2), read-out: MIC): 3.12 µg/mL (≈ 5.81 µM)
- MIC ([1]; Staphylococcus epidermidis, clinical strain 53 (Table S5), read-out: MIC): 3.12 µg/mL (≈ 5.81 µM)
- MIC ([1]; Staphylococcus epidermidis, clinical strain 54 (Table S2), read-out: MIC): 0.8 µg/mL (≈ 1.49 µM)
- MIC ([1]; Staphylococcus epidermidis, clinical strain 54 (Table S5), read-out: MIC): 0.8 µg/mL (≈ 1.49 µM)
- MIC ([1]; Staphylococcus epidermidis, clinical strain 55 (Table S2), read-out: MIC): 3.12 µg/mL (≈ 5.81 µM)
- MIC ([1]; Staphylococcus epidermidis, clinical strain 55 (Table S5), read-out: MIC): 3.12 µg/mL (≈ 5.81 µM)
- MIC ([1]; Staphylococcus epidermidis, clinical strain 56 (Table S2), read-out: MIC): 1.6 µg/mL (≈ 2.97 µM)
- MIC ([1]; Staphylococcus epidermidis, clinical strain 56 (Table S5), read-out: MIC): 1.6 µg/mL (≈ 2.97 µM)
- MIC ([1]; Staphylococcus epidermidis, clinical strain 57 (Table S2), read-out: MIC): 3.12 µg/mL (≈ 5.81 µM)
- MIC ([1]; Staphylococcus epidermidis, clinical strain 57 (Table S5), read-out: MIC): 3.12 µg/mL (≈ 5.81 µM)
- MIC ([1]; Staphylococcus epidermidis, clinical strain 58 (Table S2), read-out: MIC): 0.8 µg/mL (≈ 1.49 µM)
- MIC ([1]; Staphylococcus epidermidis, clinical strain 58 (Table S5), read-out: MIC): 0.8 µg/mL (≈ 1.49 µM)
- MIC ([1]; Staphylococcus epidermidis, clinical strain 59 (Table S2), read-out: MIC): 3.12 µg/mL (≈ 5.81 µM)
- MIC ([1]; Staphylococcus epidermidis, clinical strain 59 (Table S5), read-out: MIC): 3.12 µg/mL (≈ 5.81 µM)
- MIC ([1]; Staphylococcus epidermidis, clinical strain 60 (Table S2), read-out: MIC): 3.12 µg/mL (≈ 5.81 µM)
- MIC ([1]; Staphylococcus epidermidis, clinical strain 60 (Table S5), read-out: MIC): 3.12 µg/mL (≈ 5.81 µM)
- MIC ([1]; Staphylococcus epidermidis, clinical strain 61 (Table S2), read-out: MIC): 1.6 µg/mL (≈ 2.97 µM)
- MIC ([1]; Staphylococcus epidermidis, clinical strain 61 (Table S5), read-out: MIC): 1.6 µg/mL (≈ 2.97 µM)
- MIC ([1]; Staphylococcus epidermidis, clinical strain 62 (Table S2), read-out: MIC): 1.6 µg/mL (≈ 2.97 µM)
- MIC ([1]; Staphylococcus epidermidis, clinical strain 62 (Table S5), read-out: MIC): 1.6 µg/mL (≈ 2.97 µM)
- MIC ([1]; Staphylococcus epidermidis, clinical strain 63 (Table S2), read-out: MIC): 1.6 µg/mL (≈ 2.97 µM)
- MIC ([1]; Staphylococcus epidermidis, clinical strain 63 (Table S5), read-out: MIC): 1.6 µg/mL (≈ 2.97 µM)
- MIC ([1]; Staphylococcus epidermidis, clinical strain 64 (Table S2), read-out: MIC): 3.12 µg/mL (≈ 5.81 µM)
- MIC ([1]; Staphylococcus epidermidis, clinical strain 64 (Table S5), read-out: MIC): 3.12 µg/mL (≈ 5.81 µM)
- MIC ([1]; Staphylococcus epidermidis, clinical strain 65 (Table S2), read-out: MIC): 3.12 µg/mL (≈ 5.81 µM)
- MIC ([1]; Staphylococcus epidermidis, clinical strain 65 (Table S5), read-out: MIC): 3.12 µg/mL (≈ 5.81 µM)
- MIC ([1]; Staphylococcus epidermidis, clinical strain 66 (Table S2), read-out: MIC): 1.6 µg/mL (≈ 2.97 µM)
- MIC ([1]; Staphylococcus epidermidis, clinical strain 66 (Table S5), read-out: MIC): 1.6 µg/mL (≈ 2.97 µM)
- MIC ([1]; Staphylococcus epidermidis, clinical strain 67 (Table S2), read-out: MIC): 3.12 µg/mL (≈ 5.81 µM)
- MIC ([1]; Staphylococcus epidermidis, clinical strain 67 (Table S5), read-out: MIC): 3.12 µg/mL (≈ 5.81 µM)
- MIC ([1]; Staphylococcus epidermidis, clinical strain 68 (Table S2), read-out: MIC): 3.12 µg/mL (≈ 5.81 µM)
- MIC ([1]; Staphylococcus epidermidis, clinical strain 68 (Table S5), read-out: MIC): 3.12 µg/mL (≈ 5.81 µM)
- MIC ([1]; Staphylococcus epidermidis, clinical strain 69 (Table S2), read-out: MIC): 1.6 µg/mL (≈ 2.97 µM)
- MIC ([1]; Staphylococcus epidermidis, clinical strain 69 (Table S5), read-out: MIC): 1.6 µg/mL (≈ 2.97 µM)
- MIC ([1]; Staphylococcus epidermidis, clinical strain 70 (Table S2), read-out: MIC): 3.12 µg/mL (≈ 5.81 µM)
- MIC ([1]; Staphylococcus epidermidis, clinical strain 70 (Table S5), read-out: MIC): 3.12 µg/mL (≈ 5.81 µM)
- MIC ([1]; Staphylococcus epidermidis, clinical strain 71 (Table S2), read-out: MIC): 1.6 µg/mL (≈ 2.97 µM)
- MIC ([1]; Staphylococcus epidermidis, clinical strain 71 (Table S5), read-out: MIC): 1.6 µg/mL (≈ 2.97 µM)
- MIC ([1]; Staphylococcus epidermidis, clinical strain 72 (Table S2), read-out: MIC): 3.12 µg/mL (≈ 5.81 µM)
- MIC ([1]; Staphylococcus epidermidis, clinical strain 72 (Table S5), read-out: MIC): 3.12 µg/mL (≈ 5.81 µM)
- MIC ([1]; Staphylococcus epidermidis, clinical strain 73 (Table S2), read-out: MIC): 0.4 µg/mL (≈ 0.743 µM)
- MIC ([1]; Staphylococcus epidermidis, clinical strain 73 (Table S5), read-out: MIC): 0.4 µg/mL (≈ 0.743 µM)
- MIC ([1]; Staphylococcus epidermidis, clinical strain 74 (Table S2), read-out: MIC): 3.12 µg/mL (≈ 5.81 µM)
- MIC ([1]; Staphylococcus epidermidis, clinical strain 74 (Table S5), read-out: MIC): 3.12 µg/mL (≈ 5.81 µM)
- MIC ([1]; Staphylococcus epidermidis, clinical strain 75 (Table S2), read-out: MIC): 3.12 µg/mL (≈ 5.81 µM)
- MIC ([1]; Staphylococcus epidermidis, clinical strain 75 (Table S5), read-out: MIC): 3.12 µg/mL (≈ 5.81 µM)
- MIC ([1]; Staphylococcus epidermidis, clinical strain 76 (Table S2), read-out: MIC): 1.6 µg/mL (≈ 2.97 µM)
- MIC ([1]; Staphylococcus epidermidis, clinical strain 76 (Table S5), read-out: MIC): 1.6 µg/mL (≈ 2.97 µM)
- MIC ([1]; Staphylococcus epidermidis, clinical strain 77 (Table S2), read-out: MIC): 3.12 µg/mL (≈ 5.81 µM)
- MIC ([1]; Staphylococcus epidermidis, clinical strain 77 (Table S5), read-out: MIC): 3.12 µg/mL (≈ 5.81 µM)
- MIC ([1]; Staphylococcus epidermidis, clinical strain 78 (Table S2), read-out: MIC): 1.6 µg/mL (≈ 2.97 µM)
- MIC ([1]; Staphylococcus epidermidis, clinical strain 78 (Table S5), read-out: MIC): 1.6 µg/mL (≈ 2.97 µM)
- MIC ([1]; Staphylococcus epidermidis, clinical strain 79 (Table S2), read-out: MIC): 0.4 µg/mL (≈ 0.743 µM)
- MIC ([1]; Staphylococcus epidermidis, clinical strain 79 (Table S5), read-out: MIC): 0.4 µg/mL (≈ 0.743 µM)
- MIC ([1]; Staphylococcus epidermidis, clinical strain 80 (Table S2), read-out: MIC): 3.12 µg/mL (≈ 5.81 µM)
- MIC ([1]; Staphylococcus epidermidis, clinical strain 80 (Table S5), read-out: MIC): 3.12 µg/mL (≈ 5.81 µM)
- MIC ([1]; Staphylococcus epidermidis, clinical strain 81 (Table S2), read-out: MIC): 0.2 µg/mL (≈ 0.372 µM)
- MIC ([1]; Staphylococcus epidermidis, clinical strain 81 (Table S5), read-out: MIC): 0.2 µg/mL (≈ 0.372 µM)
- MIC ([1]; Staphylococcus epidermidis, mean of MIC values against clinical MDR-SE isolates, read-out: mean MIC): 1.76 µg/mL (≈ 3.27 µM)
- MIC50 ([1]; Staphylococcus epidermidis, 81 clinical strains, concentration inhibiting growth of 50% clinical isolates): 1.6 µg/mL (≈ 2.97 µM)
- MIC90 ([1]; Staphylococcus epidermidis, 81 clinical strains, concentration inhibiting growth of 90% of clinical isolates): 3.12 µg/mL (≈ 5.81 µM)
- category according to EUCAST clinical breakpoints for linezolid ([1]; all reference and clinical MDR S. epidermidis strains): within the susceptible category
- MIC [2]: 1.6 µg/mL (≈ 2.97 µM)
